# Results as given in patent US9682955B2, “Quinazoline derivatives useful as CB-1 inverse agonists” (Janssen Pharmaceutica NV, priority 2014, dated 2017).
# Columns and labels:
# [1] = molecular target: Human CB2R (Cannabanoid receptor 2) (Homo sapiens (Human), UniProt P34972); assay: CB-2 in vitro cAMP assay (HTRF); format: cell-based; settings: mean where tested more than once
# Description: (§1) CB1 and CB2 receptors are Gi-coupled GPCR. Activation of CB1 and CB2 receptors results in a decrease in cAMP production. An inverse agonist of the CB1 or CB2 receptor results in the opposite effect, an increase of cAMP production. The principle of this assay is based on HTRF® technology (Homogeneous Time-Resolved Fluorescence). The method is a competitive immunoassay between native cAMP produced by cells and the cAMP labeled with the fluorophore d2. The tracer binding is quantified by a Mab anti-cAMP labeled with Eu3+TBP-NHS Cryptate (supplied as part of the assay kit). The specific signal (i.e. energy transfer) is inversely proportional to the concentration of cAMP in the standard or sample.
# (§2) Human CB1R (Cannabanoid receptor 1) was stably transfected in HEK-293 cells (DiscoveRx, cat: 93-0200C1). Human CB2R (Cannabanoid receptor 2) was stably transfected in HEK-293 cells (DiscoveRx, cat: 93-0201C1). Cell cultures were maintained in media: DMEM (Invitrogen Cat#12430-054) supplemented with 10% HI FBS (Invitrogen Cat#16140-071), 1% L-glutamine (Invitrogen Cat#25030-081), 0.2 mg/ml Hygromycin B (Invitrogen Cat#10687-010), 600 μg/mL G418 (Invitrogen Cat#10131-035), and 1× Penn/Strep (Invitrogen 15140-122). After cell expansion, aliquots were cryo-stored in media containing 5% DMSO (Pierce Cat#20684).
# (§3) One day prior to experiments media was warmed to 37° C. and the cryo-stored cells were thawed in a 37° C. water bath. The cells were then added to media (10× volume) and the mixture was centrifugated at 1000 RPM for 5 min. The supernate was removed and the cells were re-suspended in media. A sample of the cell suspension was evaluated on a Cedex XS automated cell counter (Innovatis Systems) to determine viable cells/ml. Additional media was added to the cells to achieve a final cell density of 4E5 cells/mL. The cells were then plated into 384 well PDL white solid bottom plates (Greiner, Cat#781945) at 20 μL per well using a Multidrop (Thermo Scientific). Cells were removed from Row P (location of cAMP standards). Two columns of cells were plated into a clear bottom 384 well PDL coated plate (Greiner, Cat#781944) to view confluence the day of the assay. The cell plates were lidded and stored for 15 minutes in a hood, then transferred to an incubator (37° C., 5% CO2, 95% humidity) overnight.
# (§4) DMSO was added to all wells of 384 well V bottom polystyrene plate (Greiner, Cat#781280) except to columns 1 and 13, rows O and P and wells M13-M23 and N13-N23. Test compounds (60 μL, 10 mM) were added to Column 1 and 13 (A1 through N1 and A13 through L13). Test compounds were serially diluted 1/3 by transferring and mixing 20 μl sample with 40 μL DMSO.
# (§5) DMSO (40 μL) was added to wells of 384 well V bottom polystyrene plate: O2 through O11, M14 through M23, N14 through N23, and O14 through O23. AM630 (also known as [6-iodo-2-methyl-1-[2-(4-morpholinyl)ethyl]-1H-indol-3-yl](4-methoxyphenyl)-methanone, Cayman Chemical, Cat#10006974) (60 μL, 10 mM) was added to O1; and 1-(2,4-dichlorophenyl)-7-[(4-fluorophenyl)methylene]-4,5,6,7-tetrahydro-N-1-piperidinyl-1H-indazole-3-carboxamide (60 μL, 10 mM) was added to N13. The control was serially diluted 1/3 by transferring and mixing 20 μl sample with 40 μL DMSO. This process resulted 11 doses per control, 10 mM to […].
# (§6) Cells plated the day prior to the assay in clear bottom plates were viewed on an inverse microscope to ensure confluency in the range of 60-75%. […]
# [2] = molecular target: Human CB1R (Cannabanoid receptor 1) (Homo sapiens (Human), UniProt P21554); assay: CB-1 in vitro cAMP assay (HTRF); format: cell-based; settings: mean where tested more than once
# Human CB1R (Cannabanoid receptor 1), sequence (P21554 whole entry): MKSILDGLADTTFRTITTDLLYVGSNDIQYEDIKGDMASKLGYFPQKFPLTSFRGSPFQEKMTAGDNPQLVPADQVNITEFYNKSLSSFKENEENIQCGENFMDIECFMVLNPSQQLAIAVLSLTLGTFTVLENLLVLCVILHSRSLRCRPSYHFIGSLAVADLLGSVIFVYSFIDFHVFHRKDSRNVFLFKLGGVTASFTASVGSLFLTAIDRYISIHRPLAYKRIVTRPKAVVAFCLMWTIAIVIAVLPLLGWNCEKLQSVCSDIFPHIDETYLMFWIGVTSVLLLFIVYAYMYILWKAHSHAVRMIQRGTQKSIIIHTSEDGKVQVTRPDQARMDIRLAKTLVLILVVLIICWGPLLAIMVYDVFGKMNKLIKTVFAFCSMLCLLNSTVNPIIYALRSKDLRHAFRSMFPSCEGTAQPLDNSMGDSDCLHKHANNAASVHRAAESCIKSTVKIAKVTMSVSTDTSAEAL
# Description: as §1, §2, §3, §4, §5, §6
# Human CB2R (Cannabanoid receptor 2), sequence (P34972 whole entry): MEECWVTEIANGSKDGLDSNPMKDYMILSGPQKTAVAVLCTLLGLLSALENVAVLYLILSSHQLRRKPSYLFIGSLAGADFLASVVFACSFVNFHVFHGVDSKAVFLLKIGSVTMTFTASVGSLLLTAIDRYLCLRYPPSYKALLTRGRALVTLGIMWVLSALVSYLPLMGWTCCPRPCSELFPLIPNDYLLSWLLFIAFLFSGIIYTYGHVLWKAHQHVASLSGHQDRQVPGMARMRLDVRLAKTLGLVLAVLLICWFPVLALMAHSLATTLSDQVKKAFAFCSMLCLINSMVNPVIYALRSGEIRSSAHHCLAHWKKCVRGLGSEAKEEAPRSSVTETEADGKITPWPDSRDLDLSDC
EC50 [1],EC50 [2],SMILES
806 nM,67 nM,"O=C(O)CCOCCOc1nc(NCc2cccc(C(F)(F)F)c2)c2cc(C(c3ccc(Cl)cc3)c3ccc(Cl)cc3)ccc2n1 [Compound #48, 3-(2-((6-(bis(4-chlorophenyl)methyl)-4-((3-(trifluoromethyl)benzyl)amino)quinazolin-2-yl)oxy)ethoxy)propanoic acid]"
5010 nM,32 nM,"CCS(=O)(=O)N1CCC(Nc2ncnc3ccc(C(c4ccc(Cl)cc4)c4ccc(Cl)cc4)cc23)CC1 [compound 141, 6-(bis(4-chlorophenyl)methyl)-N-(1-(ethylsulfonyl)piperidin-4-yl) quinazolin-4-amine]"
2740 nM,15 nM,"O=S(=O)(c1ccccn1)N1CCC(Nc2ncnc3ccc(C(c4ccc(Cl)cc4)c4ccc(Cl)cc4)cc23)CC1 [compound 111, 6-(bis(4-chlorophenyl)methyl)-N-(1-(pyridin-2-ylsulfonyl)piperidin-4-yl)quinazolin-4-amine]"
1930 nM,4 nM,"OCC(CO)COc1nc(NCc2cccc(C(F)(F)F)c2)c2cc(C(c3ccc(Cl)cc3)c3ccc(Cl)cc3)ccc2n1 [Compound #49, 2-(((6-(bis(4-chlorophenyl)methyl)-4-((3-(trifluoromethyl)benzyl)amino)quinazolin-2-yl)oxy)methyl)propane-1,3-diol]"
1200 nM,10 nM,"Fc1cccc(CNc2ncnc3ccc(C(c4ccc(Cl)cc4)c4ccc(Cl)cc4)cc23)c1 [compound 63, 6-(bis(4-chlorophenyl)methyl)-N-(3-fluorobenzyl)quinazolin-4-amine]"
910 nM,5 nM,"O=C(c1ccccc1)N1CCC(Nc2ncnc3ccc(C(c4ccc(Cl)cc4)c4ccc(Cl)cc4)cc23)CC1 [compound 119, (4-(6-(bis(4-chlorophenyl)methyl)quinazolin-4-ylamino)piperidin-1-yl)(phenyl)methanone]"
978 nM,8 nM,"O=S(=O)(N1CCC(Nc2ncnc3ccc(C(c4ccc(Cl)cc4)c4nccs4)cc23)CC1)C(F)(F)F (stereo not drawn) [Compound #146, 6-((4-chlorophenyl)(thiazol-2-yl)methyl)-N-(1-((trifluoromethyl)sulfonyl)piperidin-4-yl)quinazolin-4-amine]"
455 nM,35 nM,"O=S1(=O)CCN(CCNc2ncnc3ccc(C(c4ccc(Cl)cc4)c4ccc(Cl)cc4)cc23)CC1 [Compound #6, 4-(2-((6-(bis(4-chlorophenyl)methyl)quinazolin-4-yl)amino)ethyl)thiomorpholine 1,1-dioxide]"
248 nM,8 nM,O=S(=O)(c1ccc(O)cc1)N1CCC(Nc2ncnc3ccc(C(c4ccc(Cl)cc4)c4ccc(Cl)cc4)cc23)CC1 [Compound #8]
371 nM,15 nM,"Oc1ccc(N2CCC(Nc3ncnc4ccc(C(c5ccc(Cl)cc5)c5ccc(Cl)cc5)cc34)CC2)cc1 [Compound #32, 4-(4-((6-(bis(4-chlorophenyl)methyl)quinazolin-4-yl)amino)piperidin-1-yl)phenol]"
1200 nM,222 nM,"O=C(c1ccc(S(=O)(=O)NCCO)cc1)N1CCC(Nc2ncnc3ccc(C(c4ccc(Cl)cc4)c4ccc(Cl)cc4)cc23)CC1 [Compound #45, 4-(4-((6-(bis(4-chlorophenyl)methyl)quinazolin-4-yl)amino)piperidine-1-carbonyl)-N-(2-hydroxyethyl)benzenesulfonamide]"
157 nM,6 nM,"N#Cc1ccc(C(c2ccc(Cl)cc2)c2ccc3ncnc(NC4CCN(S(=O)(=O)C(F)(F)F)CC4)c3c2)cc1 (stereo not drawn) [Compound #19, 4-((4-chlorophenyl)(4-((1-((trifluoromethyl)sulfonyl)piperidin-4-yl)amino)quinazolin-6-yl)methyl)benzonitrile]"
1150 nM,1 nM,"Fc1ccc(C(c2ccc(F)cc2)c2ccc3ncnc(NC4CCN(c5ccccc5)CC4)c3c2)cc1 [Compound #67, 6-(bis(4-fluorophenyl)methyl)-N-(1-phenylpiperidin-4-yl)quinazolin-4-amine]"
1060 nM,325 nM,"O=C(O)c1cccc(CCNc2ncnc3ccc(C(c4ccc(Cl)cc4)c4ccc(Cl)cc4)cc23)c1 [Compound #2, 3-(2-((6-(bis(4-chlorophenyl)methyl)quinazolin-4-yl)amino)ethyl)benzoic acid]"
> 10000 nM,11 nM,"N#CCCOCCOc1nc(NCc2cccc(C(F)(F)F)c2)c2cc(C(c3ccc(Cl)cc3)c3ccc(Cl)cc3)ccc2n1 [Compound #50, 3-(2-((6-(bis(4-chlorophenyl)methyl)-4-((3-(trifluoromethyl)benzyl)amino)quinazolin-2-yl)oxy)ethoxy)propanenitrile]"
> 10000 nM,8 nM,"O=S(=O)(N1CCC(Nc2nc(C3CC3)nc3ccc(C(c4ccc(Cl)cc4)c4ccc(Cl)cc4)cc23)CC1)C(F)(F)F [Compound #108, 6-(bis(4-chlorophenyl)methyl)-2-cyclopropyl-N-(1-((trifluoromethyl)sulfonyl)piperidin-4-yl)quinazolin-4-amine]"
> 10000 nM,10 nM,"COc1nc(NCc2ccc(C(F)(F)F)cc2)c2cc(C(c3ccc(Cl)cc3)c3ccc(Cl)cc3)ccc2n1 [Compound #85, 6-(bis(4-chlorophenyl)methyl)-2-methoxy-N-(4-(trifluoromethyl)benzyl)quinazolin-4-amine]"
8200 nM,34 nM,"C[C@@H](Nc1ncnc2ccc(C(c3ccc(Cl)cc3)c3ccc(Cl)cc3)cc12)c1cccc(C(F)(F)F)c1 (single isomer, unassigned) [compound 115]"
> 10000 nM,69 nM,"Oc1cccc(CN2CCC(Nc3ncnc4ccc(C(c5ccc(Cl)cc5)c5ccc(Cl)cc5)cc34)CC2)c1 [Compound #28, 3-((4-((6-(bis(4-chlorophenyl)methyl)quinazolin-4-yl)amino)piperidin-1-yl)methyl)phenol]"
2210 nM,7 nM,"O=C(CC(F)(F)F)N1CCC(Nc2ncnc3ccc(C(c4ccc(Cl)cc4)c4ccc(Cl)cc4)cc23)CC1 [Compound #133, 1-(4-((6-(bis(4-chlorophenyl)methyl)quinazolin-4-yl)amino)piperidin-1-yl)-3,3,3-trifluoropropan-1-one]"
1180 nM,25 nM,"FC(F)(F)c1cncc(CNc2ncnc3ccc(C(c4ccc(Cl)cc4)c4ccc(Cl)cc4)cc23)c1 [compound 126, 6-(bis(4-chlorophenyl)methyl)-N-((5-(trifluoromethyl)pyridin-3-yl)methyl)quinazolin-4-amine]"
218 nM,23 nM,"NC(=O)c1cccc(N2CCC(Nc3ncnc4ccc(C(c5ccc(Cl)cc5)c5ccc(Cl)cc5)cc34)CC2)c1 [compound 96, 3-(4-(6-(bis(4-chlorophenyl)methyl)quinazolin-4-ylamino)piperidin-1-yl)benzamide]"
10400 nM,9 nM,"CC(Nc1ncnc2ccc(C(c3ccc(Cl)cc3)c3ccc(Cl)cc3)cc12)c1cccc(C(F)(F)F)c1 (stereo not drawn) [compound 128, 6-(bis(4-chlorophenyl)methyl)-N-(1-(3-(trifluoromethyl)phenyl)ethyl)quinazolin-4-amine]"
3430 nM,98 nM,"O=C(O)COc1ccc(S(=O)(=O)N2CCC(Nc3ncnc4ccc(C(c5ccc(Cl)cc5)c5ccc(Cl)cc5)cc34)CC2)cc1 [Compound #3, 2-(4-((4-((6-(bis(4-chlorophenyl)methyl)quinazolin-4-yl)amino)piperidin-1-yl)sulfonyl)phenoxy)acetic acid]"
